The record followed here is the supplement of paper PMC10307832.

Holding throughout (assay): relative viability (nuclei count vs DMSO), 5 days (fraction); higher = more cells survive
Compound in experiment [1]: Cc1cnc(CNC(=O)c2c(=O)c3ccc(N4CCCN(C)CC4)nc3n3c2sc2ccccc23)cn1 [CX-5461] + Cc1nc(NC(=O)N2CCC[C@H]2C(N)=O)sc1-c1ccnc(C(C)(C)C(F)(F)F)c1 [Alpelisib] (partner 2 µM)
In a few lines:
(§1)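 A single step with final 0.05% Triton X-100, 1% formaldehyde and 1 ug/ml Hoechst fixed the cells and stained nuclei 5 days after treatment. Lung cancer cell lines in 1536-well plates had been treated by pin tool the day after seeding with one drug alone or a fixed anchor-drug dose plus five library-drug doses (not always all listed) in √10 steps, and nuclei were counted on 4× images. Relative viability is the ratio of nuclei in treated wells to nuclei in vehicle wells, taken as the median of duplicate plates.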

Compound in experiment [2]: Cc1cnc(CNC(=O)c2c(=O)c3ccc(N4CCCN(C)CC4)nc3n3c2sc2ccccc23)cn1 [CX-5461] + CCNC(=O)c1noc(-c2cc(C(C)C)c(O)cc2O)c1-c1ccc(CN2CCOCC2)cc1 [Luminespib] (partner 0.01 µM)
In short, it runs like this: as §1

Compound in experiment [3]: Cc1cnc(CNC(=O)c2c(=O)c3ccc(N4CCCN(C)CC4)nc3n3c2sc2ccccc23)cn1 [CX-5461] + N=C(N)NC(=N)NCCc1ccccc1 [Phenformin] (partner 250 µM)
In a few lines: as §1

Compound in experiment [4]: Cc1cnc(CNC(=O)c2c(=O)c3ccc(N4CCCN(C)CC4)nc3n3c2sc2ccccc23)cn1 [CX-5461] + CC(=O)c1c(C)c2cnc(Nc3ccc(N4CCNCC4)cn3)nc2n(C2CCCC2)c1=O [Palbociclib] (partner 0.5 µM)
In short, it runs like this: as §1

With UMC-11, the relative viability in experiment [1] (first compound 0.01 µM) was found to be 0.932; in experiment [1] (first compound 0.03162 µM), 1.21; in experiment [1] (first compound 0.1 µM), 1.07; in experiment [1] (first compound 0.3162 µM) it was 0.956; in experiment [1] (first compound 1 µM), 0.391; in experiment [2] (first compound 0.01 µM) it was 1.01. Also, the relative viability in experiment [2] (first compound 0.03162 µM) was determined as 0.931; in experiment [2] (first compound 0.1 µM) it was 0.965; in experiment [2] (first compound 0.3162 µM), 0.951; in experiment [2] (first compound 1 µM), 0.423; in experiment [3] (first compound 0.01 µM), 0.323; in experiment [3] (first compound 0.03162 µM), 0.298. Besides, the relative viability in experiment [3] (first compound 0.1 µM) was determined as 0.246; in experiment [3] (first compound 0.3162 µM), 0.293; in experiment [3] (first compound 1 µM), 0.217; in experiment [4] (first compound 0.01 µM), 0.36; in experiment [4] (first compound 0.03162 µM), 0.319; in experiment [4] (first compound 0.1 µM), 0.306. The relative viability worked out at 0.294 in experiment [4] (first compound 0.3162 µM) and 0.241 in experiment [4] (first compound 1 µM).
